In patent US20240058315A1, “Pyridine and Pyrazine derivative for the Treatment of CF, COPD, and Bronchiectasis” (NOVARTIS AG, priority 2019, published 2024):

Target: ΔF508-CFTR (Homo sapiens (Human), UniProt P13569, DEL508-508)
Assay: CFTR potentiator assays (membrane potential, IonWorks Quattro, Ussing chamber ion transport)
Type: cell-based
Details: CFTR EC50 in 'the data measurements described above'; which of the potentiator assays is not stated
Source text: CFTR activity can be quantified by measuring the transmembrane potential. The means for measuring the transmembrane potential in a biological system can employ a number of methods including electrophysiological and optical fluorescence-based membrane potential assays.
The optical membrane potential assay utilises a negatively charged potentiometric dye, such as the FLIPR membrane potential dye (FMP) (see Baxter D F, Kirk M, Garcia A F, Raimondi A, Holmqvist M H, Flint K K, Bojanic D, Distefano P S, Curtis R, Xie Y. ‘A novel membrane potential-sensitive fluorescent dye improves cell-based assays for ion channels.’ J Biomol Screen. 2002 February; 7(1):79-85) which when extracellular is bound to a quenching agent.
Upon cellular depolarisation the negatively charged dye redistributes to the intracellular compartment, unbinding from the membrane impermeant quench agent, yielding an increase in fluorescence. This change in fluorescence is proportional to the change in transmembrane potential which can result from the activity of CFTR. The changes in fluorescence can be monitored in real time by an appropriately equipped fluorescence detector such as the FLIPR (fluorometric imaging plate reader) in 96 or 384-well microtitre plates.
Chinese hamster ovary (CHO) cells stably expressing the AF508-CFTR channel were used for membrane potential experiments. Cells were maintained at 37° C. in 5% v/v CO2 at 100% humidity in Modified Eagles medium (MEM) supplemented with 8% v/v foetal calf serum, 100 μg/ml methotrexate and 100 U/ml penicillin/streptomycin. Cells were grown in 225 cm^2 tissue culture flasks. For membrane potential assays cells were seeded into 96 well plates at 40,000 cells per well, allowed to adhere and then maintained at 26° C. for 48 h to facilitate channel insertion.
The membrane potential screening assay utilised a low chloride ion containing extracellular solution (˜5 mM) combined with a double addition protocol. The first addition was of buffer with or without test compound followed 5 minutes later by an addition of forskolin (1-20 μM)—this protocol favours maximum chloride efflux in response to ΔF508-CFTR activation. The ΔF508-CFTR mediated chloride ion efflux leads to a membrane depolarisation which is optically monitored by the FMP dye.
Low chloride extracellular (mM): 120 Na-gluconate, 1.2 CaCl2), 3.3 KH2PO4, 0.8 K2HPO4, 1.2 MgCl2, 10.0 D-glucose, 20.0 HEPES, pH 7.4 with NaOH FMP dye: made up as per manufacturers' instructions in low chloride extracellular solution detailed above, at 10× final concentration, and stored as 1 mL aliquots at −20° C.
CFTR activity can also be quantified electrophysiologically using the whole-cell configuration of the patch clamp technique (Hamill et al Pflugers Archive 1981). This assay directly measures the currents associated with chloride flow through CFTR channels whilst either maintaining or adjusting the transmembrane voltage. This assay can use either single glass micropipettes or parallel planar arrays to measure CFTR activity from native or recombinant cell systems. Currents measured using parallel planar arrays can be quantified using an appropriately equipped instrument such as the IonWorks Quattro (Molecular Devices) or the Qpatch (Sophion). The Quattro system can measure CFTR currents from either a single cell per recording well (HT configuration) or alternatively from a population of 64 cells per well (Population Patch Clamp PPC) (Finkel A, Wittel A, Yang N, Handran S, Hughes J, Costantin J. ‘Population patch clamp improves data consistency and success rates in the measurement of ionic currents.’ J Biomol Screen. 2006 August; 11(5):488-96).
Chinese hamster ovary (CHO) cells stably expressing the ΔF508-CFTR channel were used for IonWorks Quattro experiments. […]

ΔF508-CFTR, sequence (P13569 other isoform, or with tags, fused parts or gaps del F508-F508): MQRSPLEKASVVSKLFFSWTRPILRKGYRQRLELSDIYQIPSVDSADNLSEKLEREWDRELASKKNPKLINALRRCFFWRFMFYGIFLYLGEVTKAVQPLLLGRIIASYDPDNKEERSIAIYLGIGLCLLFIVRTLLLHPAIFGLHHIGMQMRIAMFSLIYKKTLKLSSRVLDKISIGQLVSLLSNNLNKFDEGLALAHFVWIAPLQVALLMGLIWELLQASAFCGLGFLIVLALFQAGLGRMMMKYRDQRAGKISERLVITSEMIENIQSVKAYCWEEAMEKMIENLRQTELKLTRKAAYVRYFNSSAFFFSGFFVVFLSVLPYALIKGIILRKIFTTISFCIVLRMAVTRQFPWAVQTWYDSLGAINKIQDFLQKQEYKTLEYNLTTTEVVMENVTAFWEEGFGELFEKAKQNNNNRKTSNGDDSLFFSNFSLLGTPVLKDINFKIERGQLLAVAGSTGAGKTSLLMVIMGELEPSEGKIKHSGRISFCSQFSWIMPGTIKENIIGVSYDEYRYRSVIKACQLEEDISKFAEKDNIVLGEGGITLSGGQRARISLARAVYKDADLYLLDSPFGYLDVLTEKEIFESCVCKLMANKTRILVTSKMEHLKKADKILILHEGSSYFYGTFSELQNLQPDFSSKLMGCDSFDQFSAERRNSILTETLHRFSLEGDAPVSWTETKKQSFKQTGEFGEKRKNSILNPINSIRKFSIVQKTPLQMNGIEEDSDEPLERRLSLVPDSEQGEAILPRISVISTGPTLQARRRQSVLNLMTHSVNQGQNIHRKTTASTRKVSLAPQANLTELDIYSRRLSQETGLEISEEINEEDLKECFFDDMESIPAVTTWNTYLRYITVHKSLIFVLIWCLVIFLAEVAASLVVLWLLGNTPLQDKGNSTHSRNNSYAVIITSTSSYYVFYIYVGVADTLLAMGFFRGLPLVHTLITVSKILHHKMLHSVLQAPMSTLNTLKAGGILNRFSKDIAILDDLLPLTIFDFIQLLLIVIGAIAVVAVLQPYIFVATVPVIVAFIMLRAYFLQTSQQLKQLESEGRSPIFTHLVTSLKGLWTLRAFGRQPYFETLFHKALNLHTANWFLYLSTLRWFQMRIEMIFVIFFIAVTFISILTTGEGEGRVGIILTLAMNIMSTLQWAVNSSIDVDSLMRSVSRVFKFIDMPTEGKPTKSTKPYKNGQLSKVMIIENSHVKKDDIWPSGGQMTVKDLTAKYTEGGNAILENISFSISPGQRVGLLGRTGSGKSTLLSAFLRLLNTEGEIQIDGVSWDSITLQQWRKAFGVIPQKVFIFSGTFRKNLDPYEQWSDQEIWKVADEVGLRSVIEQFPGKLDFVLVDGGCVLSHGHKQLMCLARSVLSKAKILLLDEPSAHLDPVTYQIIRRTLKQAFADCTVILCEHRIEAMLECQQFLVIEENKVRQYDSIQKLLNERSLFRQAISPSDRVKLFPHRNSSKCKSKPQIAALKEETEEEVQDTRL

| SMILES | EC50 |
| --- | --- |
| COc1nc(C(=O)NCC(C)(O)C(F)(F)F)c(N)cc1C(F)(F)F (racemic) [Example 4, 3-Amino-6-methoxy-5-trifluoromethyl-pyridine-2-carboxylic acid (3,3,3-trifluoro-2-hydroxy-2-methyl-propyl)-amide] | 76 nM |
| COc1nc(C(=O)NC[C@@](C)(O)C(F)(F)F)c(N)cc1C(F)(F)F (single isomer, unassigned) [Example 6] | 426 nM |
| CC(O)(CNC(=O)c1nc(-c2ccc(Cl)cc2Cl)c(C(F)(F)F)cc1N)C(F)(F)F (single isomer, unassigned) [Example 9, 3-Amino-6-(2,4-dichloro-phenyl)-5-trifluoromethyl-pyridine-2-carboxylic acid (3,3,3-trifluoro-2-hydroxy-2-methyl-propyl)-amide] | 90 nM |
| CC(O)(CNC(=O)c1nc(-c2ccc(Cl)cc2Cl)c(C(F)(F)F)cc1N)C(F)(F)F (single isomer, unassigned) [Example 10, 3-Amino-6-(2,4-dichloro-phenyl)-5-trifluoromethyl-pyridine-2-carboxylic acid (3,3,3-trifluoro-2-hydroxy-2-methyl-propyl)-amide] | 112 nM |
| Cc1ccc(-c2nc(C(=O)NCC(C)(O)C(F)(F)F)c(N)cc2C(F)(F)F)cn1 (single isomer, unassigned) [Example 15, 5-Amino-6′-methyl-3-trifluoromethyl-[2,3′]bipyridinyl-6-carboxylic acid (3,3,3-trifluoro-2-hydroxy-2-methyl-propyl)-amide] | 51 nM |
| C[C@](O)(CNC(=O)c1nc(Br)c(C(F)(F)F)cc1N)C(F)(F)F [Example 3, 3-Amino-6-bromo-5-trifluoromethyl-pyridine-2-carboxylic acid ((S)-3,3,3-trifluoro-2-hydroxy-2-methyl-propyl)-amide] | 55 nM |
| C[C@](O)(CNC(=O)c1nc(-c2ccc(F)cc2)c(C(F)(F)F)cc1N)C(F)(F)F [Example 7, 3-Amino-6-(4-fluoro-phenyl)-5-trifluoromethyl-pyridine-2-carboxylic acid ((S)-3,3,3-trifluoro-2-hydroxy-2-methyl-propyl)-amide] | 40 nM |
| C[C@@](O)(CNC(=O)c1nc(-c2ccc(F)cc2)c(C(F)(F)F)cc1N)C(F)(F)F [Example 8, 3-Amino-6-(4-fluoro-phenyl)-5-trifluoromethyl-pyridine-2-carboxylic acid ((R)-3,3,3-trifluoro-2-hydroxy-2-methyl-propyl)-amide] | 60 nM |
| Cc1ccc(-c2nc(C(=O)NCC(O)(C(F)(F)F)C(F)(F)F)c(N)cc2C(F)(F)F)cn1 [Example 14, 5-Amino-6′-methyl-3-trifluoromethyl-[2,3′]bipyridinyl-6-carboxylic acid (3,3,3-trifluoro-2-hydroxy-2-trifluoromethyl-propyl)-amide] | 115 nM |

Now those with a lower EC50, led by results:

| EC50 | SMILES |
| --- | --- |
| 15 nM | C[C@@](O)(CNC(=O)c1nc(Br)c(C(F)(F)F)cc1N)C(F)(F)F [Example 2, 3-Amino-6-bromo-5-trifluoromethyl-pyridine-2-carboxylic acid ((R)-3,3,3-trifluoro-2-hydroxy-2-methyl-propyl)-amide] |
| 37 nM | CC(C)(O)CNC(=O)c1nc(-c2ccc(F)cc2)c(C(F)(F)F)cc1N [Example 11, 3-Amino-6-(4-fluoro-phenyl)-5-trifluoromethyl-pyridine-2-carboxylic acid (2-hydroxy-2-methyl-propyl)-amide] |
| 35 nM | COc1nc(C(=O)NCC(O)C(F)(F)F)c(N)cc1C(F)(F)F (centres unmarked) [Example 12, 3-Amino-6-methoxy-5-trifluoromethyl-pyridine-2-carboxylic acid (3,3,3-trifluoro-2-hydroxy-propyl)-amide] |
| 8 nM | C[C@](O)(CNC(=O)c1nc(C(F)(F)F)c(C(F)(F)F)cc1N)C(F)(F)F [Example 16, 3-Amino-5,6-bis-trifluoromethyl-pyridine-2-carboxylic acid ((S)-3,3,3-trifluoro-2-hydroxy-2-methyl-propyl)-amide] |
| 10 nM | C[C@@](O)(CNC(=O)c1nc(C(F)(F)F)c(C(F)(F)F)cc1N)C(F)(F)F [Example 17, 3-Amino-5,6-bis-trifluoromethyl-pyridine-2-carboxylic acid ((R)-3,3,3-trifluoro-2-hydroxy-2-methyl-propyl)-amide] |
